From the NIST ThermoML archive (doi:10.1021/je200721d)

Experiment: xn = mol fraction of the nth substance listed
Settings: Liquid, Vibrating tube method

CCCCCCCCCC [decane] + CCCCCC
Settings	mass density [kg/m3]
313.08 K, 1000 kPa, x2 = 0.8991	654.3
313.08 K, 2000 kPa, x2 = 0.8991	655.28
313.08 K, 3000 kPa, x2 = 0.8991	656.28
313.08 K, 4000 kPa, x2 = 0.8991	657.3
313.08 K, 5000 kPa, x2 = 0.8991	658.33
313.08 K, 6000 kPa, x2 = 0.8991	659.37
313.08 K, 7000 kPa, x2 = 0.8991	660.42
313.08 K, 8000 kPa, x2 = 0.8991	661.47
313.08 K, 9000 kPa, x2 = 0.8991	662.52
313.08 K, 10000 kPa, x2 = 0.8991	663.56
313.08 K, 11000 kPa, x2 = 0.8991	664.61
313.08 K, 12000 kPa, x2 = 0.8991	665.63
313.08 K, 13000 kPa, x2 = 0.8991	666.66
313.08 K, 14000 kPa, x2 = 0.8991	667.66
313.08 K, 15000 kPa, x2 = 0.8991	668.63
313.08 K, 16000 kPa, x2 = 0.8991	669.61
313.08 K, 17000 kPa, x2 = 0.8991	670.54
313.08 K, 18000 kPa, x2 = 0.8991	671.45
313.08 K, 19000 kPa, x2 = 0.8991	672.34
313.08 K, 20000 kPa, x2 = 0.8991	673.21
313.08 K, 21000 kPa, x2 = 0.8991	674.04
313.08 K, 22000 kPa, x2 = 0.8991	674.91
313.08 K, 23000 kPa, x2 = 0.8991	675.69
313.08 K, 24000 kPa, x2 = 0.8991	676.48
313.08 K, 25000 kPa, x2 = 0.8991	677.31
313.17 K, 1000 kPa, x2 = 0.2185	704.92
313.17 K, 2000 kPa, x2 = 0.2185	705.74
313.17 K, 3000 kPa, x2 = 0.2185	706.66
313.17 K, 4000 kPa, x2 = 0.2185	707.53
313.17 K, 5000 kPa, x2 = 0.2185	708.39
313.17 K, 6000 kPa, x2 = 0.2185	709.25
313.17 K, 7000 kPa, x2 = 0.2185	710.11
313.17 K, 8000 kPa, x2 = 0.2185	710.96
313.17 K, 9000 kPa, x2 = 0.2185	711.8
313.17 K, 10000 kPa, x2 = 0.2185	712.63
313.17 K, 10990 kPa, x2 = 0.2185	713.46
313.17 K, 12000 kPa, x2 = 0.2185	714.27
313.17 K, 13000 kPa, x2 = 0.2185	715.05
313.17 K, 14000 kPa, x2 = 0.2185	715.84
313.17 K, 15000 kPa, x2 = 0.2185	716.63
313.17 K, 16000 kPa, x2 = 0.2185	717.4
313.17 K, 17000 kPa, x2 = 0.2185	718.15
313.17 K, 18000 kPa, x2 = 0.2185	718.88
313.17 K, 19000 kPa, x2 = 0.2185	719.62
313.17 K, 20000 kPa, x2 = 0.2185	720.34
313.17 K, 21000 kPa, x2 = 0.2185	721.06
313.17 K, 22000 kPa, x2 = 0.2185	721.76
313.17 K, 23000 kPa, x2 = 0.2185	722.46
313.17 K, 24000 kPa, x2 = 0.2185	723.13
313.17 K, 25000 kPa, x2 = 0.2185	723.78
313.18 K, 1000 kPa, x2 = 0.0456	713.33
313.18 K, 1000 kPa, x2 = 0.7524	668.32
313.18 K, 2000 kPa, x2 = 0.0456	714.22
313.18 K, 2000 kPa, x2 = 0.7524	669.4
313.18 K, 3000 kPa, x2 = 0.0456	715.11
313.18 K, 3000 kPa, x2 = 0.7524	670.46
313.18 K, 4000 kPa, x2 = 0.0456	715.98
313.18 K, 4000 kPa, x2 = 0.7524	671.5
313.18 K, 5000 kPa, x2 = 0.0456	716.84
313.18 K, 5000 kPa, x2 = 0.7524	672.55
313.18 K, 6000 kPa, x2 = 0.0456	717.69
313.18 K, 6000 kPa, x2 = 0.7524	673.61
313.18 K, 7000 kPa, x2 = 0.0456	718.53
313.18 K, 7000 kPa, x2 = 0.7524	674.58
313.18 K, 8000 kPa, x2 = 0.0456	719.34
313.18 K, 8000 kPa, x2 = 0.7524	675.56
313.18 K, 9000 kPa, x2 = 0.0456	720.15
313.18 K, 9000 kPa, x2 = 0.7524	676.55
313.18 K, 10000 kPa, x2 = 0.0456	720.95
313.18 K, 10000 kPa, x2 = 0.7524	677.5
313.18 K, 10990 kPa, x2 = 0.0456	721.74
313.18 K, 10990 kPa, x2 = 0.7524	678.44
313.18 K, 12000 kPa, x2 = 0.0456	722.51
313.18 K, 12000 kPa, x2 = 0.7524	679.36
313.18 K, 13000 kPa, x2 = 0.0456	723.28
313.18 K, 13000 kPa, x2 = 0.7524	680.27
313.18 K, 14000 kPa, x2 = 0.0456	724.03
313.18 K, 14000 kPa, x2 = 0.7524	681.18
313.18 K, 15000 kPa, x2 = 0.0456	724.78
313.18 K, 15000 kPa, x2 = 0.7524	682.08
313.18 K, 16000 kPa, x2 = 0.0456	725.51
313.18 K, 16000 kPa, x2 = 0.7524	682.96
313.18 K, 17000 kPa, x2 = 0.0456	726.24
313.18 K, 17000 kPa, x2 = 0.7524	683.82
313.18 K, 18000 kPa, x2 = 0.0456	726.96
313.18 K, 18000 kPa, x2 = 0.7524	684.65
313.18 K, 19000 kPa, x2 = 0.0456	727.67
313.18 K, 19000 kPa, x2 = 0.7524	685.47
313.18 K, 20000 kPa, x2 = 0.0456	728.36
313.18 K, 20000 kPa, x2 = 0.7524	686.29
313.18 K, 21000 kPa, x2 = 0.0456	729.05
313.18 K, 21000 kPa, x2 = 0.7524	687.07
313.18 K, 22000 kPa, x2 = 0.0456	729.74
